Source: patent publication US10407467B2, “Polymyxin derivatives and their use in combination therapy together with different antibiotics” (priority 2013, dated 2019)
Counter-ions that a name gives are not always drawn. Bridge positions count the residues as written; N and C are the ends. Square brackets hold non-standard residues; d marks the D form. Peptide text beside a SMILES is read from it. * marks the point of attachment. ξ: configuration not given here. ξβ3hGly(cHex) = NC(CC(=O)*)C1CCCCC1; Thr(3ξ) = CC(O)[C@H](N)C(=O)O; X11 = O=C(C(O)c1cccc(Br)c1)*; X13 = O=C(CC[C@@H]1CCCN1)*; X9 = CC(C)[C@H](N)CCC(=O)*; Dab = NCC[C@H](N)C(=O)O; βAla = NCCC(=O)O

Assays:
Format in all cases: cell-based
Pseudomonas aeruginosa [1] = test: MIC, compound in combination with a second agent (broth microdilution); details: 1:1 (wt:wt) combination with Rifampicin, MIC = total drug concentration; for MIC P. aeruginosa ATCC 27853: strain ATCC 27853; for MIC P. aeruginosa ATCC CRM-9027: strain ATCC CRM-9027; for MIC P. aeruginosa ATCC-47: strain ATCC-47; for MIC P. aeruginosa CCUG 59626: strain CCUG 59626
Procedure, shortened: (§1)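 Compound and second agent (e.g. rifampicin) were combined 1:1 w/w, compound weighed as its TFA or sulphate salt. Inoculum was a direct colony suspension from 18-24 hour Mueller-Hinton agar at 0.5 McFarland. MIC is the total drug concentration; lower of duplicates reported, modal value when tested repeatedly.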

Escherichia coli [2] = test: as above; details: 1:1 (wt:wt) combination with Rifampicin, MIC = total drug concentration; for MIC E. coli ATCC25922: strain ATCC25922; for MIC E. coli NCTC9001: strain NCTC9001
Procedure, shortened: as §1

Acinetobacter baumannii [3] = test: as above; details: 1:1 (wt:wt) combination with Rifampicin, MIC = total drug concentration; for MIC A. baumannii ATCC BAA-747: strain ATCC BAA-747; for MIC A. baumannii CCUG57249: strain CCUG57249; for MIC A. baumannii NCTC 13423: strain NCTC 13423; for MIC A. baumannii NCTC 13424: strain NCTC 13424
Procedure, shortened: as §1

Klebsiella pneumoniae [4] = test: as above; details: 1:1 (wt:wt) combination with Rifampicin, MIC = total drug concentration; for MIC K. pneumoniae ATCC-BAA-2146: strain ATCC-BAA-2146; for MIC K. pneumoniae CCUG-59348: strain CCUG-59348; for MIC K. pneumoniae NCTC 13438: strain NCTC 13438
Procedure, shortened: as §1

Pseudomonas aeruginosa [5] = test: MIC, sole activity (no second agent); details: in the absence of Rifampicin; for MIC P. aeruginosa ATCC 27853: strain ATCC27853; for MIC P. aeruginosa ATCCCRM-9027: strain ATCCCRM-9027
Procedure, shortened: (§2)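 Inoculum: direct colony suspension (18-24 h MH agar), 0.5 McFarland. Medium: cation-adjusted MHB. Up to 4 strains/species; reported relative to Polymyxin B.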

Escherichia coli [6] = test: MIC, sole activity (no second agent); details: in the absence of Rifampicin; for MIC E. coli ATCC25922: strain ATCC25922; for MIC E. coli NCTC9001: strain NCTC9001
Procedure, shortened: as §2

Acinetobacter baumannii [7] = test: MIC, sole activity (no second agent); details: in the absence of Rifampicin; for MIC A. baumannii ATCCBAA-747: strain ATCCBAA-747; for MIC A. baumannii NCTC 13423: strain NCTC13423
Procedure, shortened: as §2

Klebsiella pneumoniae [8] = test: MIC, sole activity (no second agent); details: in the absence of Rifampicin; for MIC K. pneumoniae ATCC 4352: strain ATCC 4352; for MIC K. pneumoniae ATCC-BAA2146: strain ATCC-BAA2146; for MIC K. pneumoniae CCUG-59348: strain CCUG-59348; for MIC K. pneumoniae NCTC-13438: strain NCTC-13438
Procedure, shortened: as §2

| MIC P. aeruginosa ATCC 27853 (Pseudomonas aeruginosa [1]) [micrograms/mL] | MIC P. aeruginosa ATCC CRM-9027 (Pseudomonas aeruginosa [1]) [micrograms/mL] | MIC P. aeruginosa ATCC-47 (Pseudomonas aeruginosa [1]) [micrograms/mL] | MIC P. aeruginosa CCUG 59626 (Pseudomonas aeruginosa [1]) [micrograms/mL] | MIC E. coli ATCC25922 (Escherichia coli [2]) [micrograms/mL] | MIC E. coli NCTC9001 (Escherichia coli [2]) [micrograms/mL] | MIC A. baumannii ATCC BAA-747 (Acinetobacter baumannii [3]) [micrograms/mL] | MIC A. baumannii CCUG57249 (Acinetobacter baumannii [3]) [micrograms/mL] | MIC A. baumannii NCTC 13423 (Acinetobacter baumannii [3]) [micrograms/mL] | MIC A. baumannii NCTC 13424 (Acinetobacter baumannii [3]) [micrograms/mL] | MIC K. pneumoniae ATCC-BAA-2146 (Klebsiella pneumoniae [4]) [micrograms/mL] | MIC K. pneumoniae CCUG-59348 (Klebsiella pneumoniae [4]) [micrograms/mL] | MIC K. pneumoniae NCTC 13438 (Klebsiella pneumoniae [4]) [micrograms/mL] | MIC P. aeruginosa ATCC 27853 (Pseudomonas aeruginosa [5]) [micrograms/mL] | MIC P. aeruginosa ATCCCRM-9027 (Pseudomonas aeruginosa [5]) [micrograms/mL] | MIC E. coli ATCC25922 (Escherichia coli [6]) [micrograms/mL] | MIC K. pneumoniae ATCC 4352 (Klebsiella pneumoniae [8]) [micrograms/mL] | MIC K. pneumoniae ATCC-BAA2146 (Klebsiella pneumoniae [8]) [micrograms/mL] | MIC K. pneumoniae CCUG-59348 (Klebsiella pneumoniae [8]) [micrograms/mL] | MIC K. pneumoniae NCTC-13438 (Klebsiella pneumoniae [8]) [micrograms/mL] | Compound | further results |
| --- | --- | --- | --- | --- | --- | --- | --- | --- | --- | --- | --- | --- | --- | --- | --- | --- | --- | --- | --- | --- | --- |
| 0.5 | 0.5 | 0.5 | 0.25 | 0.25 | 0.5 | 0.25 | 0.25 | 0.25 | 0.5 | 2 | 2 | 1 | – | – | – | – | – | – | – | CC(C)C[C@@H]1NC(=O)[C@@H](CC(C)C)NC(=O)[C@H](CCN)NC(=O)[C@@H](NC(=O)[C@H](CCN)NC(=O)[C@@H](NC(=O)C(O)C2CCCCC2)C(C)O)CCNC(=O)[C@H](C(C)O)NC(=O)[C@H](CCN)NC(=O)[C@H](CCN)NC1=O (single isomer, unassigned; isomer 1) [Example 31, 2(RS)-(2-Hydroxy-2-cyclohexyl)ethanoyl polymyxin E nonapeptide, TFA salt. Isomer 1] | – |
| – | – | – | – | – | 0.25 | – | – | – | – | 1 | 8 | 2 | 0.125 | 0.25 | 2 | 0.125 | >32 | >32 | >32 | CC(C)C[C@@H]1NC(=O)[C@@H](Cc2ccccc2)NC(=O)[C@H](CCN)NC(=O)[C@@H](NC(=O)[C@H](CCN)NC(=O)[C@@H](NC(=O)CCN)C(C)O)CCNC(=O)[C@H](C(C)O)NC(=O)[C@H](CCN)NC(=O)[C@H](CCN)NC1=O (stereo partly shown) [Example 3, 3-Aminopropanoyl polymyxin B nonapeptide] (H-[βAla][Thr(3ξ)][Dab][Dab][Dab][dF]L[Dab][Dab][Thr(3ξ)]; lactam 4-C) | MIC A. baumannii ATCCBAA-747 (Acinetobacter baumannii [7]): 1 micrograms/mL; MIC A. baumannii NCTC 13423 (Acinetobacter baumannii [7]): 1 micrograms/mL |
| 0.25 | 1 | 0.5 | 0.25 | 0.125 | 1 | – | ≤0.06 | 0.125 | 0.125 | 0.5 | 2 | 0.5 | – | – | – | – | – | – | – | CC(C)C[C@@H]1NC(=O)[C@@H](Cc2ccccc2)NC(=O)[C@H](CCN)NC(=O)[C@@H](NC(=O)[C@H](CCN)NC(=O)[C@@H](NC(=O)C(O)c2cccc(Br)c2)C(C)O)CCNC(=O)[C@H](C(C)O)NC(=O)[C@H](CCN)NC(=O)[C@H](CCN)NC1=O (stereo partly shown) [Example 18] (X11-[Thr(3ξ)][Dab][Dab][Dab][dF]L[Dab][Dab][Thr(3ξ)]; lactam 3-C) | MIC K. pneumoniae ATCC 4352 (Klebsiella pneumoniae [4]; strain ATCC 4352): 0.125 micrograms/mL |
| – | – | – | – | – | 0.125 | – | – | – | – | 0.25 | 4 | 0.5 | 0.125 | 0.5 | 8 | 0.5 | >32 | >32 | >32 | CC(C)C[C@@H]1NC(=O)[C@@H](Cc2ccccc2)NC(=O)[C@H](CCN)NC(=O)[C@@H](NC(=O)[C@H](CCN)NC(=O)[C@@H](NC(=O)CC[C@@H](N)C(C)C)C(C)O)CCNC(=O)[C@H](C(C)O)NC(=O)[C@H](CCN)NC(=O)[C@H](CCN)NC1=O (stereo partly drawn) [Example 22, 4(R)-Amino-5-methylhexanoyl polymyxin B nonapeptide] (X9-[Thr(3ξ)][Dab][Dab][Dab][dF]L[Dab][Dab][Thr(3ξ)]; lactam 3-C) | MIC E. coli NCTC9001 (Escherichia coli [6]): >32 micrograms/mL; MIC A. baumannii ATCCBAA-747 (Acinetobacter baumannii [7]): 1 micrograms/mL; MIC A. baumannii NCTC 13423 (Acinetobacter baumannii [7]): 0.5 micrograms/mL |
| – | – | – | – | – | 0.25 | – | – | – | – | 1 | 8 | 1 | 0.125 | – | 16 | 1 | >32 | >32 | >32 | CC(C)C[C@@H]1NC(=O)[C@@H](Cc2ccccc2)NC(=O)[C@H](CCN)NC(=O)[C@@H](NC(=O)[C@H](CCN)NC(=O)[C@@H](NC(=O)CC[C@@H]2CCCN2)C(C)O)CCNC(=O)[C@H](C(C)O)NC(=O)[C@H](CCN)NC(=O)[C@H](CCN)NC1=O (stereo partly drawn) [Example 23, 3-(S)-(1-pyrrolidin-2-yl)-propionyl polymyxin B nonapeptide] (X13-[Thr(3ξ)][Dab][Dab][Dab][dF]L[Dab][Dab][Thr(3ξ)]; lactam 3-C) | MIC E. coli NCTC9001 (Escherichia coli [6]): >32 micrograms/mL |
| 0.25 | 0.125 | 0.125 | 0.25 | 0.25 | – | ≤0.06 | 0.125 | ≤0.06 | <0.06 | 0.25 | 2 | 0.5 | – | – | – | – | – | – | – | CC(C)C[C@@H]1NC(=O)[C@@H](CC(C)C)NC(=O)[C@H](CCN)NC(=O)[C@@H](NC(=O)[C@H](CCN)NC(=O)[C@@H](NC(=O)CC(N)C2CCCCC2)C(C)O)CCNC(=O)[C@H](C(C)O)NC(=O)[C@H](CCN)NC(=O)[C@H](CCN)NC1=O (stereo partly drawn) [Example 30, 3(R,S)-3-Amino-3-cyclohexane-propanoyl]Polymyxin E nonapeptide, TFA salt] ({ξβ3hGly(cHex)}-[Thr(3ξ)][Dab][Dab][Dab][dL]L[Dab][Dab][Thr(3ξ)]; lactam 3-C) | – |
